Data as given in ChEMBL document CHEMBL3885861, “Open TG-GATES”.

Organism: Rattus norvegicus
Assay: Open TG-GATES - Regimen: Daily Repeat
Type: toxicity, organism-based, Sprague-Dawley
Set-up: regimen Daily Repeat, gender Male, age 6 weeks
Details: in vivo, po, 0 mg/kg, route gavage, dose level Control; for APTT / Bas / Eos / Fbg / Hb / Ht / Lym / MCH / MCHC / MCV / Mono / Neu / PT / Plat / RBC / Ret / WBC: tissue Blood
[1] = 72 h, tissue Kidney, time 3 day
[2] = 72 h, tissue Plasma, time 3 day

## CCCNC(=O)NS(=O)(=O)c1ccc(Cl)cc1 [CHLORPROPAMIDE]
72 h, time 3 day
  TERMINAL_BW: 215.2 g
  APTT: 17.7 s
  Bas: 0.2%
  Eos: 1%
  Fbg: 289.2 mg/dL
  Hb: 13.2 g/dL
  Ht: 40.3%
  Lym: 78%
  MCH: 21.8 pg
  MCHC: 32.8%
  MCV: 66.6 fL
  Mono: 4%
  Neu: 16%
  PT: 15.4 s
  Plat: 120.9 x10_4/uL
  RBC: 605.6 x10_4/ul
  Ret: 7.5%
  WBC: 84 x10_2/uL
[1]
  KIDNEY_L: 0.9 g
  KIDNEY_R: 0.9 g
  KIDNEY_TOTAL: 1.9 g
72 h, tissue Liver, time 3 day
  LIVER: 10.4 g
[2]
  A/G: 0.9
  ALP: 1591.4 IU/L
  ALT: 48.2 IU/L
  AST: 71.6 IU/L
  BUN: 16.8 mg/dL
  CRE: 0.2 mg/dL
  Ca: 10.8 mg/dL
  Cl: 105 meq/L
  DBIL: 0.01 mg/dL
  GLC: 184 mg/dL
  IP: 7.3 mg/dL
  K: 4 meq/L
  LDH: 95.2 IU/L
  Na: 142.2 meq/L
  PL: 154.6 mg/dL
  RALB: 2.7 g/dL
  TBIL: 0.034 mg/dL
  TC: 80.4 mg/dL
  TG: 107.2 mg/dL
  TP: 5.8 g/dL
  gamma-GTP: 1 IU/L
[…], time 7 day
  TERMINAL_BW: 251.8 g
  APTT: 17.6 s
  Bas: 0.2%
  Eos: 1%
  Fbg: 294 mg/dL
  Hb: 13.7 g/dL
  Ht: 40.9%
  Lym: 76.2%
  MCH: 21.6 pg
  MCHC: 33.4%
  MCV: 64.7 fL
  Mono: 2.6%
  Neu: 18.8%
  PT: 15.5 s
  Plat: 124.5 x10_4/uL
  RBC: 632 x10_4/ul
  Ret: 6.4%
  WBC: 98.4 x10_2/uL
[…], time 14 day
  TERMINAL_BW: 307.1 g
  APTT: 18.5 s
  Bas: 0.2%
  Eos: 1%
  Fbg: 274 mg/dL
  Hb: 14.5 g/dL
  Ht: 42.8%
  Lym: 78.4%
  MCH: 20.6 pg
  MCHC: 33.8%
  MCV: 60.8 fL
  Mono: 2.4%
  Neu: 17.4%
  PT: 15.2 s
  Plat: 122.4 x10_4/uL
  RBC: 703.6 x10_4/ul
  Ret: 4.5%
  WBC: 115.5 x10_2/uL
[…], time 28 day
  TERMINAL_BW: 390.8 g
  APTT: 20.6 s
  Bas: 0.2%
  Eos: 1.2%
  Fbg: 259.6 mg/dL
  Hb: 14.9 g/dL
  Ht: 45.3%
